Read-outs that look alike come from different tables or passages of the source.
Assays:
[1] = system: LDL; conditions: second study named in the background; any dose adjustment or change; cited from earlier work
[2] = system: LDL; assay: Logistic regression models of attaining LDL goal: odds ratios for concurrent or prior drug doses; format: in vivo, patients
Experimental: G. Covariates for the multivariate model—The following list includes the predictors one or more of which may be tested in the multivariate models. • 1. AGE: (expressed in units of 10 years) at time that the new statin prescription was released • 2. GENDER, E. G., MALE: 1=yes, 0=no • 3. BMI (kg/M^2): last value before release date • 4. HBA1C (hemoglobin Alc): last value before release date • 5. PLDL: preceding LDL level expressed in e.g. 10 mg/dl units • 6. Statins • a. PLOVA: prior daily dose of lovastatin expressed in e.g. 10 mg units • b. […] For additional drugs: • a. AMIODOSE: amiodarone dose in mg/day • b. CARBDOSE: carbemazepine dose in mg/day • c. PIOGDOSE: pioglitazone dose expressed as number of 15 mg doses per day • d. […] METFDOSE: metformin dose expressed as number of 1000 mg doses per day • f. PHENDOSE: phenyloin dose in mg/day • g. RISPDOSE: risperidone dose in mg/day • h. ROSIDOSE: rosiglitazone dose in mg/day • i.
Body mass index (BMI) was chosen as a covariate of statin response because obese patients tend to consume a diet high in cholesterol. It was hypothesized that they would respond less well to statins because their hypercholesterolemia was more likely to be mediated by dietary indiscretion than excessive LDL synthesis. […] Metformin and the thiazolidinediones were chosen because they reduce LDL levels in diabetic patients through mechanisms that may or may not be affected by concurrent statin treatment. The remaining non-statin drugs were chosen because they are commonly used drugs that potentiate the effect of statins. They were selected by reviewing the official on-line VA pharmaceutical reference (Micromedex®) for major interactions mediated by impaired statin metabolism. […] The daily dose of the non-statin drug was calculated by the method described in Section B.
H. Assembling the predictor file—The patient identifier was used to link the new statin prescription type and dose, the preceding LDL above goal, and the type and dose of the previous statin (if any) with the patient's most recent HbA1c, most recent BMI, and the daily doses of 9 drugs with major statin interactions that were active at the time the new prescription was released.
The dependent variable was attainment of goal (LDL <100 mg/dl). […] Step selections were based upon the maximal likelihood method with α<0.15 to enter and ≧0.15 to remove.

[3] = system: LDL; assay: Proportion of CAD patients attaining LDL goal (<100 mg/dl) on a statin dose; validation sets stratified by predicted probability; conditions: for Proportion of patients achieving goal: validation set
[4] = system: LDL; conditions: cited from earlier work

## CC[C@H](C)C(=O)O[C@H]1C[C@@H](C)C=C2C=C[C@H](C)[C@H](CC[C@@H]3C[C@@H](O)CC(=O)O3)[C@H]21 [Lovastatin, lovastatin]
[1]
  Success of dose adjustment (reaching LDL goal): ≤ 50%
[2]; odds of goal LDL <100 mg/dl, Lovastatin 20 mg [A] model (includes HbA1c; n = 595), per dose increment
  OR: 0.768
[2]; odds of goal, Lovastatin 20 mg [B] model (excludes HbA1c; n = 733), per dose increment
  OR: 0.542
[2]; odds of goal, Lovastatin 40 mg model (n = 764), per dose increment
  OR: 0.768
[2]; odds of goal, Lovastatin 80 model (n = 309), per dose increment
  OR: 0.868
[2]; odds of goal, Model 1, Lovastatin 20 mg, per 10 mg/day
  OR: 0.593
[2]; odds of goal, Model 1, Lovastatin 40 mg, per 10 mg/day
  OR: 0.770
[2]; odds of goal, Model 1, Lovastatin 80 mg, per 10 mg/day
  OR: 0.868
[2]; odds of goal, Model 1, Simvastatin 10 mg, per 10 mg/day
  OR: 0.434
[2]; odds of goal, Model 1, Simvastatin 20 mg, per 10 mg/day
  OR: 0.615
[2]; odds of goal, Model 1, Simvastatin 40 mg, per 10 mg/day
  OR: 0.928
[2]; odds of goal, Model 1, Simvastatin 80 mg, per 10 mg/day
  OR: 1.04
[2]; odds of goal, Simvastatin 10 mg [B] model (includes BMI; n = 136), per dose increment
  OR: 0.341
[2]; odds of goal, Simvastatin 10 mg [C] model (excludes BMI; n = 219), per dose increment
  OR: 0.382
[2]; odds of goal, Simvastatin 20 mg model (n = 374), per dose increment
  OR: 0.617
[2]; odds of goal, Simvastatin 40 mg model (n = 698), per dose increment
  OR: 0.921
[3]; Lovastatin 10 mg model, Overall
  Proportion of patients achieving goal: 36.8%
[3]; Lovastatin 10 mg model, predicted probability 0-19%
  Proportion of patients achieving goal: 10.9%
[3]; Lovastatin 10 mg model, predicted probability 20-39%
  Proportion of patients achieving goal: 31.3%
[3]; Lovastatin 10 mg model, predicted probability 40-59%
  Proportion of patients achieving goal: 46.8%
[3]; Lovastatin 10 mg model, predicted probability 60-79%
  Proportion of patients achieving goal: 73.3%
[3]; Lovastatin 20 mg [A] model, Overall
  Proportion of patients achieving goal: 49.2%
[3]; Lovastatin 20 mg [A] model, predicted probability 0-19%
  Proportion of patients achieving goal: 15.0%
[3]; Lovastatin 20 mg [A] model, predicted probability 20-39%
  Proportion of patients achieving goal: 25.8%
[3]; Lovastatin 20 mg [A] model, predicted probability 40-59%
  Proportion of patients achieving goal: 55.1%
[3]; Lovastatin 20 mg [A] model, predicted probability 60-79%
  Proportion of patients achieving goal: 73.0%
[3]; Lovastatin 20 mg [A] model, predicted probability 80-100%
  Proportion of patients achieving goal: 71.4%
[3]; Lovastatin 20 mg [B] model, Overall
  Proportion of patients achieving goal: 49.3%
[3]; Lovastatin 20 mg [B] model, predicted probability 0-19%
  Proportion of patients achieving goal: 12.7%
[3]; Lovastatin 20 mg [B] model, predicted probability 20-39%
  Proportion of patients achieving goal: 33.0%
[3]; Lovastatin 20 mg [B] model, predicted probability 40-59%
  Proportion of patients achieving goal: 53.6%
[3]; Lovastatin 20 mg [B] model, predicted probability 60-79%
  Proportion of patients achieving goal: 75.0%
[3]; Lovastatin 20 mg [B] model, predicted probability 80-100%
  Proportion of patients achieving goal: 64.7%
[3]; Lovastatin 40 mg model, Overall
  Proportion of patients achieving goal: 49.3%
[3]; Lovastatin 40 mg model, predicted probability 0-19%
  Proportion of patients achieving goal: 11.1%
[3]; Lovastatin 40 mg model, predicted probability 20-39%
  Proportion of patients achieving goal: 31.2%
[3]; Lovastatin 40 mg model, predicted probability 40-59%
  Proportion of patients achieving goal: 50.7%
[3]; Lovastatin 40 mg model, predicted probability 60-79%
  Proportion of patients achieving goal: 70.7%
[3]; Lovastatin 40 mg model, predicted probability 80-100%
  Proportion of patients achieving goal: 100%
[3]; Model 1, lovastatin 10 mg, Overall
  Proportion of patients achieving goal: 36.8%
[3]; Model 1, lovastatin 10 mg, predicted probability 0-19%
  Proportion of patients achieving goal: 10.9%
[3]; Model 1, lovastatin 10 mg, predicted probability 20-39%
  Proportion of patients achieving goal: 31.3%
[3]; Model 1, lovastatin 10 mg, predicted probability 40-59%
  Proportion of patients achieving goal: 46.8%
[3]; Model 1, lovastatin 10 mg, predicted probability 60-79%
  Proportion of patients achieving goal: 73.3%
[3]; Model 1, lovastatin 20 mg, Overall
  Proportion of patients achieving goal: 47.4%
[3]; Model 1, lovastatin 20 mg, predicted probability 0-19%
  Proportion of patients achieving goal: 8.5%
[3]; Model 1, lovastatin 20 mg, predicted probability 20-39%
  Proportion of patients achieving goal: 29.0%
[3]; Model 1, lovastatin 20 mg, predicted probability 40-59%
  Proportion of patients achieving goal: 54.4%
[3]; Model 1, lovastatin 20 mg, predicted probability 60-79%
  Proportion of patients achieving goal: 74.6%
[3]; Model 1, lovastatin 40 mg, Overall
  Proportion of patients achieving goal: 49.3%
[3]; Model 1, lovastatin 40 mg, predicted probability 0-19%
  Proportion of patients achieving goal: 11.1%
[3]; Model 1, lovastatin 40 mg, predicted probability 20-39%
  Proportion of patients achieving goal: 33.3%
[3]; Model 1, lovastatin 40 mg, predicted probability 40-59%
  Proportion of patients achieving goal: 49.1%
[3]; Model 1, lovastatin 40 mg, predicted probability 60-79%
  Proportion of patients achieving goal: 73.2%
[3]; this study, all doses
  Chance of success (reaching goal) of any dose choice: ≤ 50%
[4]; Dose 20 mg
  Average LDL reduction: 29%
[4]; Dose 40 mg
  Average LDL reduction: 31%
[4]; Dose 80 mg
  Average LDL reduction: 40-48%
